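All cell lines were grown in 96-well plates and treated with compound for 48 hours. TGI is the concentration that stops growth completely.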
Key:
Assay in all cases: NCI tumour cell line growth inhibition, 48 h
MDA-N = tested on: MDA-N
SR leukemia = tested on: SR leukemia
M14 melanoma = tested on: M14 melanoma
HS 578T breast = tested on: HS 578T breast
TK-10 renal = tested on: TK-10 renal
MDA-MB-435 = tested on: MDA-MB-435
MDA-MB-231 breast = tested on: MDA-MB-231 breast
SW-620 colon = tested on: SW-620 colon
PC-3 prostate = tested on: PC-3 prostate
ACHN renal = tested on: ACHN renal
HOP-92 NSCLC = tested on: HOP-92 NSCLC
NCI-H226 lung = tested on: NCI-H226 lung
M19-MEL melanoma = tested on: M19-MEL melanoma
HCT-116 colon = tested on: HCT-116 colon
DMS 114 small cell lung = tested on: DMS 114 small cell lung
SN12K1 renal = tested on: SN12K1 renal
A549 NSCLC = tested on: A549 NSCLC
LOX IMVI melanoma = tested on: LOX IMVI melanoma
KM20L2 colon = tested on: KM20L2 colon
DMS 273 small cell lung = tested on: DMS 273 small cell lung

| SMILES | TGI (MDA-N) [µM] | TGI (SR leukemia) [µM] | TGI (M14 melanoma) [µM] | TGI (HS 578T breast) [µM] | TGI (TK-10 renal) [µM] | TGI (MDA-MB-435) [µM] | TGI (MDA-MB-231 breast) [µM] | TGI (SW-620 colon) [µM] | TGI (PC-3 prostate) [µM] | TGI (ACHN renal) [µM] | TGI (HOP-92 NSCLC) [µM] | TGI (NCI-H226 lung) [µM] | TGI (M19-MEL melanoma) [µM] | TGI (HCT-116 colon) [µM] | TGI (DMS 114 small cell lung) [µM] | TGI (SN12K1 renal) [µM] | TGI (A549 NSCLC) [µM] | TGI (LOX IMVI melanoma) [µM] | TGI (KM20L2 colon) [µM] | TGI (DMS 273 small cell lung) [µM] |
| --- | --- | --- | --- | --- | --- | --- | --- | --- | --- | --- | --- | --- | --- | --- | --- | --- | --- | --- | --- | --- |
| O=C(c1ccco1)C1CC(c2c(O)ccc3ccccc23)=NN1 (configuration not stated) | 36.4 | 42.8 | 26 | 46.3 | 32.5 | 22.4 | 37.3 | 31 | 21.1 | 25 | 37.4 | 40.2 |  |  |  |  |  |  |  |  |
| CC1(C)OC2CC(=O)OCC23C1CC(=O)C1(C)C3CCC2(C)C(c3ccoc3)OC(=O)C3OC321 (configuration not stated) |  |  |  |  |  |  |  | > 125 |  |  |  | > 125 | > 125 | > 125 | > 125 | > 125 | > 125 | > 125 | > 125 | > 125 |

— PubChem BioAssay (NCI)
